3 compounds from ChEMBL document CHEMBL3045546, “Synthesis and antimicrobial screening of 4-thiazolidinone and 2-azetidinone derivatives of piperazine” (2013) can be followed below.

In brackets after ≈: the same amount, converted by molar mass.

Holding throughout (format): functional
One assay has as its system Bacillus cereus. Nature of the assay: Antimicrobial activity against Bacillus cereus ATCC 11778 assessed as growth inhibition by broth dilution method.
Another assay relates to Bacillus pumilus. Briefly: Antimicrobial activity against Bacillus pumilus ATCC 14884 assessed as growth inhibition by broth dilution method.
A further assay concerns Staphylococcus hominis. Nature of the assay: Antimicrobial activity against Staphylococcus hominis ATCC 27844 assessed as growth inhibition by broth dilution method.
A further assay has as its system Staphylococcus aureus. Briefly: Antimicrobial activity against Staphylococcus aureus ATCC 25923 assessed as growth inhibition by broth dilution method.
The subject of assay [1] is Staphylococcus epidermidis. Briefly: Antimicrobial activity against Staphylococcus epidermidis ATCC 12228 assessed as growth inhibition by broth dilution method.
The subject of another assay is Micrococcus luteus. Briefly: Antimicrobial activity against Micrococcus luteus ATCC 4698 assessed as growth inhibition by broth dilution method.
In the next assay the test system is Bacillus subtilis. Nature of the assay: Antimicrobial activity against Bacillus subtilis ATCC 6633 assessed as growth inhibition by broth dilution method.
The test system of the next assay is Aspergillus fumigatus. Nature of the assay: Antimicrobial activity against Aspergillus fumigatus assessed as growth inhibition by broth dilution method.
In the next assay the test system is Aspergillus flavus. Briefly: Antimicrobial activity against Aspergillus flavus ATCC 15517 assessed as growth inhibition by broth dilution method.
The test system of another assay is Trichoderma viride. Briefly: Antimicrobial activity against Hypocrea rufa ATCC 52440 assessed as growth inhibition by broth dilution method.
The next assay relates to Fusarium solani. Nature of the assay: Antimicrobial activity against Fusarium solani ATCC 38136 assessed as growth inhibition by broth dilution method.
The test system of a further assay is Trichophyton longifusum. Nature of the assay: Antimicrobial activity against Trichophyton longifusum ATCC 22397 assessed as growth inhibition by broth dilution method.
For another assay, the system named is Rhizoctonia solani. Briefly: Antimicrobial activity against Rhizoctonia solani ATCC 76131 assessed as growth inhibition by broth dilution method.
The test system of another assay is Alternaria alternata. Nature of the assay: Antimicrobial activity against Alternaria alternata ATCC 66868 assessed as growth inhibition by broth dilution method.
A further assay has as its system Microsporum canis. Briefly: Antimicrobial activity against Arthroderma otae ATCC 11622 assessed as growth inhibition by broth dilution method.
The next assay relates to Candida albicans. Briefly: Antimicrobial activity against Candida albicans ATCC 10231 assessed as growth inhibition by broth dilution method.
A further assay deals with Aspergillus awamori. Briefly: Antimicrobial activity against Aspergillus awamori ATCC 22342 assessed as growth inhibition by broth dilution method.
For a further assay, the system named is Aspergillus niger. Briefly: Antimicrobial activity against Aspergillus niger ATCC 9142 assessed as growth inhibition by broth dilution method.
Another assay deals with Pseudomonas aeruginosa. Nature of the assay: Antimicrobial activity against Pseudomonas aeruginosa ATCC 10145 assessed as growth inhibition by broth dilution method.
A further assay deals with Escherichia coli. Briefly: Antimicrobial activity against Escherichia coli ATCC 25922 assessed as growth inhibition by broth dilution method.
Another assay relates to Salmonella typhi. Nature of the assay: Antimicrobial activity against Salmonella enterica subsp. enterica serovar Typhi ATCC 19430 assessed as growth inhibition by broth dilution method.
For the next assay, the system named is Klebsiella pneumoniae. Briefly: Antimicrobial activity against Klebsiella pneumoniae ATCC 13883 assessed as growth inhibition by broth dilution method.
Another assay deals with Proteus mirabilis. Briefly: Antimicrobial activity against Proteus mirabilis ATCC 49565 assessed as growth inhibition by broth dilution method.
A further assay has as its system Proteus vulgaris. Briefly: Antimicrobial activity against Proteus vulgaris ATCC 13315 assessed as growth inhibition by broth dilution method.

In the case of `COc1ccc(C2SCC(=O)N2CCN2CCNCC2)cc1O` (configuration not stated), the minimum inhibitory concentration (MIC) with Bacillus cereus is 4.68 µg/mL (≈ 13.9 µM); with Bacillus pumilus, 9.37 µg/mL (≈ 27.8 µM); in the assay with Staphylococcus hominis, 9.37 µg/mL (≈ 27.8 µM); in the assay on Staphylococcus aureus, 9.37 µg/mL (≈ 27.8 µM); in [1], 9.37 µg/mL (≈ 27.8 µM); in the assay with Micrococcus luteus it was 9.37 µg/mL (≈ 27.8 µM). The MIC in the assay with Bacillus subtilis came out at 9.37 µg/mL (≈ 27.8 µM); in the assay on Aspergillus fumigatus it was 9.37 µg/mL (≈ 27.8 µM); with Aspergillus flavus, 9.37 µg/mL (≈ 27.8 µM); with Trichoderma viride, 18.8 µg/mL (≈ 55.6 µM); in the assay with Fusarium solani it was 18.8 µg/mL (≈ 55.6 µM); in the assay with Trichophyton longifusum it was 18.8 µg/mL (≈ 55.6 µM). Also, the MIC in the assay on Rhizoctonia solani worked out at 9.37 µg/mL (≈ 27.8 µM); with Alternaria alternata, 18.8 µg/mL (≈ 55.6 µM); in the assay on Microsporum canis, 9.37 µg/mL (≈ 27.8 µM); with Candida albicans, 9.37 µg/mL (≈ 27.8 µM); in the assay with Aspergillus awamori it was 9.37 µg/mL (≈ 27.8 µM); in the assay on Aspergillus niger it was 18.8 µg/mL (≈ 55.6 µM). In addition, the MIC in the assay on Pseudomonas aeruginosa was determined as 9.37 µg/mL (≈ 27.8 µM); with Escherichia coli it was 9.37 µg/mL (≈ 27.8 µM); with Salmonella typhi, 9.37 µg/mL (≈ 27.8 µM); with Klebsiella pneumoniae it was 4.68 µg/mL (≈ 13.9 µM); in the assay with Proteus mirabilis, 9.37 µg/mL (≈ 27.8 µM); in the assay on Proteus vulgaris it was 9.37 µg/mL (≈ 27.8 µM).

Turning to `O=C1CSC(c2ccccc2O)N1CCN1CCNCC1` (configuration not stated), the MIC with Bacillus cereus stood at 75 µg/mL (≈ 244 µM); in the assay with Bacillus pumilus, 150 µg/mL (≈ 488 µM); with Staphylococcus hominis, 75 µg/mL (≈ 244 µM); with Staphylococcus aureus, 150 µg/mL (≈ 488 µM); in [1], 75 µg/mL (≈ 244 µM); in the assay on Micrococcus luteus it was 150 µg/mL (≈ 488 µM). In addition, the minimum inhibitory concentration (MIC) in the assay on Bacillus subtilis amounted to 75 µg/mL (≈ 244 µM); with Aspergillus fumigatus, 150 µg/mL (≈ 488 µM); in the assay with Aspergillus flavus, 150 µg/mL (≈ 488 µM); in the assay with Trichoderma viride it was 300 µg/mL (≈ 976 µM); with Fusarium solani, 300 µg/mL (≈ 976 µM); in the assay on Trichophyton longifusum, 300 µg/mL (≈ 976 µM). For the same compound, the MIC worked out at 150 µg/mL (≈ 488 µM) in the assay with Rhizoctonia solani; 150 µg/mL (≈ 488 µM) in the assay with Alternaria alternata; 300 µg/mL (≈ 976 µM) with Microsporum canis; 150 µg/mL (≈ 488 µM) in the assay on Candida albicans; 300 µg/mL (≈ 976 µM) in the assay on Aspergillus awamori; 300 µg/mL (≈ 976 µM) in the assay on Aspergillus niger. In addition, the MIC with Pseudomonas aeruginosa was determined as 75 µg/mL (≈ 244 µM); in the assay on Escherichia coli it was 75 µg/mL (≈ 244 µM); in the assay on Salmonella typhi it was 75 µg/mL (≈ 244 µM); with Klebsiella pneumoniae, 75 µg/mL (≈ 244 µM); with Proteus mirabilis, 150 µg/mL (≈ 488 µM); with Proteus vulgaris, 150 µg/mL (≈ 488 µM).

Consider `O=C1CSC(c2cccc(O)c2)N1CCN1CCNCC1` (configuration not stated), for which the minimal inhibitory concentration (MIC) in the assay on Bacillus cereus came to 18.8 µg/mL (≈ 61 µM); with Bacillus pumilus, 37.5 µg/mL (≈ 122 µM); in the assay with Staphylococcus hominis, 37.5 µg/mL (≈ 122 µM); in the assay on Staphylococcus aureus it was 37.5 µg/mL (≈ 122 µM); in [1], 18.8 µg/mL (≈ 61 µM); in the assay on Micrococcus luteus, 18.8 µg/mL (≈ 61 µM). Moreover, the minimal inhibitory concentration (MIC) with Bacillus subtilis turned out to be 37.5 µg/mL (≈ 122 µM); in the assay on Aspergillus fumigatus, 37.5 µg/mL (≈ 122 µM); in the assay on Aspergillus flavus it was 37.5 µg/mL (≈ 122 µM); in the assay on Trichoderma viride, 37.5 µg/mL (≈ 122 µM); in the assay on Fusarium solani, 75 µg/mL (≈ 244 µM); in the assay on Trichophyton longifusum, 37.5 µg/mL (≈ 122 µM). Moreover, the minimum inhibitory concentration (MIC) was 37.5 µg/mL (≈ 122 µM) in the assay with Rhizoctonia solani; 75 µg/mL (≈ 244 µM) in the assay with Alternaria alternata; 37.5 µg/mL (≈ 122 µM) in the assay on Microsporum canis; 37.5 µg/mL (≈ 122 µM) with Candida albicans; 37.5 µg/mL (≈ 122 µM) in the assay with Aspergillus awamori; 37.5 µg/mL (≈ 122 µM) in the assay with Aspergillus niger. Further, the minimal inhibitory concentration (MIC) in the assay on Pseudomonas aeruginosa amounted to 37.5 µg/mL (≈ 122 µM); in the assay with Escherichia coli, 37.5 µg/mL (≈ 122 µM); in the assay on Salmonella typhi, 18.8 µg/mL (≈ 61 µM); in the assay with Klebsiella pneumoniae it was 37.5 µg/mL (≈ 122 µM); in the assay with Proteus mirabilis it was 18.8 µg/mL (≈ 61 µM); with Proteus vulgaris, 37.5 µg/mL (≈ 122 µM).
